Data from publication PMC7551609 (Viruses, 2020).
“Also recorded” adds a separate entry of the source. Read-outs that look alike come from different tables or passages of the source.

What was measured:
[1] = tested on: ZIKV Paraiba/2015; assay: Viral inhibition assay, post-treatment, human A549 cells; assay type: cell-based, Zika virus; details: for inhibitor category based on SI-MTT and SI-XTT: Paraiba/2015, A549 cells; for MIC / EC50: Zika virus; for MIC: in Homo sapiens, read-out: A549 cells MIC (maximum effective concentration); for EC50: ZIKV Paraiba/2015, A549 cells, post-treatment, 36 h
[2] = MTT cell viability in A549 cells; assay type: cell-based, human; details: human, highest concentration used 50.00 µM, sentence also cites [17]
[3] = tested on: ZIKV Paraiba/2015; assay: Viral inhibition assay, post-infection treatment, Vero cells; assay type: cell-based, Zika virus; details: for EC50: ZIKV Paraiba/2015, Vero cells, post-infection treatment, 36 h; for MIC: read-out: Post-treatment MIC (maximum effective concentration); for inhibitor category based on SI-MTT / inhibitor category based on SI-MTT and SI-XTT / inhibitor category based on SI-XTT: post-treatment, Paraiba/2015, Vero
[4] = tested on: ZIKV Paraiba/2015; assay: Growth kinetics inhibition assay (infectious viral progeny), Vero cells; assay type: cell-based, Zika virus
[5] = XTT cell proliferation assay in Vero cells; assay type: cell-based, African green monkey; details: African green monkey, non-infected Vero cells, 36 h post-treatment
[6] = MTT cell viability assay in Vero cells; assay type: cell-based, African green monkey; details: African green monkey, non-infected Vero cells, 36 h post-treatment
[7] = tested on: ZIKV Paraiba/2015; assay: Viral inhibition assay, pre-treatment (prophylactic), Vero cells; assay type: cell-based, Zika virus; details: for MIC / EC50: Zika virus; for MIC: read-out: Pre-treatment MIC (maximum effective concentration); for EC50: ZIKV Paraiba/2015, Vero cells, pre-treatment 12 h before infection
[8] = tested on: ZIKV PRVABC59 strain; assay: Viral inhibition assay, post-treatment, new World strain, Vero cells; assay type: cell-based, Zika virus; details: for inhibitor category based on SI-MTT and SI-XTT / inhibitor category based on SI-MTT / inhibitor category based on SI-XTT: ZIKV PRVABC59, Vero; for EC50 / MIC: Zika virus; for EC50: new World ZIKV PRVABC59, Vero cells, post-treatment, 48 h; for MIC: new World ZIKV PRVABC59, read-out: PRVABC59 MIC (maximum effective concentration)
[9] = tested on: ZIKV Paraiba/2015; assay: Viral inhibition assay, co-treatment, Vero cells; assay type: cell-based, Zika virus; details: for Co-treatment MIC (maximum effective concentration): Vero cells, ZIKV Paraiba/2015, co-treatment; for inhibitor category based on SI-MTT / inhibitor category based on SI-MTT and SI-XTT / inhibitor category based on SI-XTT: co-treatment, Paraiba/2015, Vero
[10] = XTT cell proliferation in A549 cells; assay type: cell-based, human; details: human, highest concentration used 50.00 µM, sentence also cites [17]
[11] = tested on: ZIKV MR-766 strain; assay: Viral inhibition assay, post-treatment, old World strain, Vero cells; assay type: cell-based, Zika virus; details: for EC50 / MIC: Zika virus; for EC50: old World ZIKV MR-766, Vero cells, post-treatment; for MIC: old World ZIKV MR-766 strain, read-out: MR766 MIC (maximum effective concentration)
[12] = tested on: ZIKV cocktail of MR-766, FSS13025, and MEX-2-81; details: JEG-3 cells, ZIKV cocktail of MR-766, FSS13025, MEX-2-81; cited from earlier work
[13] = tested on: ZIKV-MEX-2-81; details: ZIKV-MEX-2-81, U2OS cells; cited from earlier work
[14] = tested on: ZIKV PRVABC59; parameters: method as in ref 22 = [22]; details: ZIKV PRVABC59, SF268 cells; cited from earlier work
[15] = tested on: ZIKV PRVABC59; parameters: method as in ref 22 = [22]; details: ZIKV PRVABC59, U251 cells; cited from earlier work
[16] = tested on: ZIKV PRVABC59; parameters: method as in ref 22 = [22]; details: ZIKV PRVABC59, Huh-7 cells; cited from earlier work
[17] = tested on: Caspase 3 and 7; assay: Apoptosis assay (Caspase Glo 3/7) in ZIKV-infected Vero cells; details: 0, 0.1, 1, 10 EC50; 24, 48, 72 h post-treatment
[18] = 0.1, 1, 10 EC50, all time points (24, 48, 72 h post-treatment), MOI 0.1
[19] = pre-treatment, Paraiba/2015, Vero

| Compound | inhibitor category based on SI-MTT and SI-XTT [1] | MIC [1] | EC50 [1] | CC50 [2] | EC50 [3] | EC50 ([3]; Zika virus, Vero) | MIC ([3]; Zika virus) | inhibitor category based on SI-MTT and SI-XTT [3] | CC50 at 36 h ([5]; confluent monolayers) | MIC [7] | EC50 [7] | inhibitor category based on SI-XTT [7, 19] | EC50 [8] | MIC [8] | Co-treatment MIC (maximum effective concentration) [9] | CC50 [10] | inhibitor category based on SI-MTT and SI-XTT ([11]; ZIKV MR-766, Vero) | EC50 [11] | MIC [11] | inhibitor category based on SI-MTT [7, 19] | also measured |
| --- | --- | --- | --- | --- | --- | --- | --- | --- | --- | --- | --- | --- | --- | --- | --- | --- | --- | --- | --- | --- | --- |
| NC(=O)c1[nH]nc([C@@H]2O[C@H](CO)[C@@H](O)[C@H]2O)c1O [Pyrazofurin] | moderate | < 1.23 µM | 330 nM | > 50 µM | 5.96 µM | 5.16 µM | > 100 µM | moderate to weak | > 1.35 mM | > 100 µM | 313 µM | weakest | 950 nM | < 3.7 µM | > 100.00 µM | > 50 µM | moderate | 890 nM | < 3.7 µM |  | inhibitor category based on SI-MTT [3]: moderate; inhibitor category based on SI-XTT [3]: weak; effect on production of infectious viral progeny (viral titers) [4, 18]: dose-dependent inhibitory effect; CC50 at 36 h ([6]; confluent monolayers): 271 µM; inhibitor category based on SI-MTT and SI-XTT [7, 19]: weak; inhibitor category based on SI-MTT and SI-XTT [8]: moderate; inhibitor category based on SI-MTT [9]: weak; inhibitor category based on SI-MTT and SI-XTT [9]: weak |
| CCCCCC[C@H]1C(=O)O[C@H](C)[C@H](NC(=O)c2cccc(NC=O)c2O)C(=O)O[C@@H](C)[C@@H]1OC(=O)CC(C)C [Antimycin A] | weak | < 11.1 µM | 1710 nM | > 50 µM |  | 1.29 µM | < 100 µM | moderate to weak |  | < 100 µM | 8.95 µM | moderate | 7320 nM | < 33.3 µM | > 100.00 µM | > 50 µM | most potent; also recorded: potent | 30 nM | < 33.3 µM | moderate | inhibitor category based on SI-MTT [3]: weak; inhibitor category based on SI-XTT [3]: potent; effect on production of infectious viral progeny (viral titers) ([4]; 72 h post-treatment): dose-dependent effect; CC50 at 36 h [5]: > 1.35 mM; CC50 at 36 h [6]: 51.3 µM; inhibitor category based on SI-MTT and SI-XTT [8]: weak; inhibitor category based on SI-MTT [9]: moderate; inhibitor category based on SI-XTT [9]: potent |
| COc1c(C)c2c(c(O)c1C/C=C(\C)CCC(=O)OCCN1CCOCC1)C(=O)OC2 [Mycophenolate mofetil] | weak | < 11.1 µM | 830 nM | > 50 µM | 3.52 µM | 3.54 µM | > 100 µM | moderate to weak | > 1.35 mM | > 100 µM | 8.11 µM | potent | 120 nM | < 1.23 µM | > 100.00 µM | > 50 µM | most potent; also recorded: potent | 240 nM | < 1.23 µM | Potent; also recorded: moderate | effect on production of infectious viral progeny (viral titers) [4, 18]: dose-dependent inhibitory effect; CC50 at 36 h ([6]; confluent monolayers): 166 µM; inhibitor category based on SI-MTT and SI-XTT [8]: potent; inhibitor category based on SI-MTT [9]: Potent; inhibitor category based on SI-MTT and SI-XTT [9]: potent; inhibitor category based on SI-XTT [9]: potent; EC50 [12]: 760 nM |
| NCC(=O)Nc1ccc(-n2nc(C(F)(F)F)cc2-c2ccc3c(ccc4ccccc43)c2)cc1 [OSU-03012] | moderate | < 1.23 µM | 210 nM | > 50 µM | 8.4 µM | 6.85 µM | < 33.3 µM | weakest |  | < 3.7 µM | 0.93 µM | highest potent | 1680 nM | > 11.1 µM | > 100.00 µM | > 50 µM |  | 810 nM | < 11.1 µM | moderate | EC50 [13]: 900 nM; inhibitor category based on SI-MTT [3]: weak; inhibitor category based on SI-XTT [3]: weak; EC50 [14]: 1180 nM; effect on production of infectious viral progeny (viral titers) ([4]; 1 EC50, all the analyzed times, may be caused by toxicity): Complete inhibition; CC50 at 36 h [5]: 0.133 mM; EC50 [15]: 840 nM; CC50 at 36 h [6]: 6.39 µM; EC50 [16]: 820 to 880 nM; inhibitor category based on SI-MTT [8]: weak; inhibitor category based on SI-XTT [8]: moderate; EC50 ([9]; Zika virus, Vero): 1770 nM; inhibitor category based on SI-MTT [9]: weak; inhibitor category based on SI-XTT [9]: potent; inhibitor category based on SI-MTT ([11]; ZIKV MR-766, Vero): weak; inhibitor category based on SI-XTT ([11]; ZIKV MR-766, Vero): moderate |
| CC[C@H](CC#N)OC(=O)N[C@@H](C)c1cccc(NC(=O)Nc2ccc(-c3cnco3)c(OC)c2)c1 [AVN-944] | Potent | < 0.41 µM | 50 nM | > 50 µM | 0.98 µM | 0.84 µM | < 11.1 µM | most potent; also recorded: potent | > 1.35 mM | < 100 µM | 11.1 µM | moderate | 380 nM | < 1.23 µM | > 100.00 µM | > 50 µM | most potent; also recorded: potent | 330 nM | < 1.23 µM | Potent | effect on production of infectious viral progeny (viral titers) [4, 18]: dose-dependent inhibitory effect; CC50 at 36 h ([6]; confluent monolayers): 273 µM; inhibitor category based on SI-MTT and SI-XTT [8]: potent; inhibitor category based on SI-MTT and SI-XTT [9]: moderate |
| O=C(O)C1=CC(=C(c2ccc(O)c(C(=O)O)c2)c2ccc(O)c(C(=O)O)c2)C=CC1=O [ATA, Aurintricarboxylic acid] | weak | < 100 µM | 6670 nM | > 50 µM |  | 21 µM | > 100 µM | moderate to weak | > 1.35 mM | > 100 µM | 9.86 µM | moderate | 4740 nM | < 33.3 µM | < 33.30 µM | > 50 µM | weak | 8080 nM | < 33.3 µM | potent | caspase 3/7 activation in ZIKV-infected cells [17]: dose-dependent effect; effect on production of infectious viral progeny (viral titers) ([4]; 10 EC50): complete inhibition; CC50 at 36 h ([6]; confluent monolayers): > 1350 µM; inhibitor category based on SI-MTT [8]: moderate; inhibitor category based on SI-XTT [8]: weak; inhibitor category based on SI-MTT and SI-XTT [9]: potent |
